Where only a bound is given, the exact number is not on record here.

A word on the IC50: it is the concentration that gives 50% inhibition.

For one assay, the target named is T1, BRD4_2 (Homo sapiens, UniProt O60885).
T1 construct: contains two tandem bromodomains (BrD1 and BrD2)
Put plainly: Fluorescence anisotropy binding assay (competition with FITC-labeled MS417 probe), BRD4_2. Particulars: FITC-MS417 probe 80 nM, PBS pH 7.4, 1 hour, 25° C.

For assay [1], the target named is T2, first bromodomain (BrD1) of human BRD4 (Homo sapiens, UniProt O60885).
T2 construct: the first bromodomain (BrD1) of human BRD4; poly-His (cleaved yes); made in house
Put plainly: Fluorescence anisotropy binding assay (competition with FITC-labeled MS417 probe). The following applies: FITC-MS417 probe 80 nM, PBS pH 7.4, 1 hour, 25° C., read-out: BRD4_1 IC50. Here is the method:
Fluorescence Anisotropy Binding Assay
Expression and purification of the first bromodomain (BrD1) of human BRD4 in poly-His tag form was performed using a procedure described in the literature [See Zeng et al. Structure 16, 643-652 (2008) and Zhang et al., J Biol Chem 287, 28840-28851 (2012).] The protein was purified by using affinity chromatography on a nickel-IDA column (Invitrogen), followed by the removal of poly-His tag by thrombin cleavage.
Binding affinity of the newly synthesized compounds to the BRD4 BrD1 was assessed in a fluorescence anisotropy assay using a fluorescein isothiocyanate (FITC)-labeled MS417 as an assay probe (Zhang et al. 2008 op.cit.). Competition binding was performed with a BrD protein (0.25 to 1 μM) and the fluorescent probe (80 nM), and increasing concentration of unlabeled competing ligand in a PBS buffer (pH 7.4) in total volume of 80 μL. Measurements were obtained after 1 hour incubation of the fluorescent ligand and the protein at 25° C. with Safire 2 microplate reader (Tecan). In the assay, fluorescent ligand concentration was ≦2Kd, and protein concentration was set at which 50-80% of fluorescent ligand is bound. Dissociation constant of a competing ligand was calculated with the correction to Cheng-Prussoff equation introduced by Nicolovska-Coleska and colleagues [Nikolovska-Coleska, Z. et al., Anal Biochem 332, 261-273 (2004). Assuming one-site competitive binding model, the equation used to calculate Ki's from IC50 values recovered from fitting data using Prism:
[formula] where [I50] is the concentration of free inhibitor at 50% inhibition, [L50], the concentration of free labeled ligand at 50% inhibition, and [P0], concentration of free protein at 0% inhibition. Note that Kd for each protein-probe pair is the limit of resolvable Ki in a competition assay.
Background: Fluorescence polarisation rises when a labelled molecule tumbles more slowly, as on binding a larger partner.

As for `COc1ccccc1NC(=O)c1ccc(NC2=C(C)C(=O)CC2)c(OC)c1` [Example 04-57, 3-methoxy-N-(2-methoxyphenyl)-4-((2-methyl-3-oxocyclopent-1-en-1-yl)amino)-benzamide], the IC50 (on BRD4_2; in assay [1]) was 1 to 10 µM in each case.

For the compound `COc1cccc(NC(=O)c2ccc(NC3=C(C)C(=O)CC3)c(OC)c2)c1` [Example 04-58, 3-methoxy-N-(3-methoxyphenyl)-4-((2-methyl-3-oxocyclopent-1-en-1-yl)amino)-benzamide], the IC50 (on BRD4_2; in assay [1]) was 1 to 10 µM in each case.

Consider `COc1ccc(NC(=O)c2ccc(NC3=C(C)C(=O)CC3)c(OC)c2)cc1` [Example 04-59, 3-methoxy-N-(4-methoxyphenyl)-4-((2-methyl-3-oxocyclopent-1-en-1-yl)amino)-benzamide], for which the IC50 (on BRD4_2; in assay [1]) was 1 to 10 µM throughout.

Consider `COc1cc(C(=O)Nc2ccccc2C)ccc1NC1=C(C)C(=O)CC1` [Example 04-60, 3-methoxy-4-((2-methyl-3-oxocyclopent-1-en-1-yl)amino)-N-(o-tolyl)benzamide], for which the IC50 (at BRD4_2; in assay [1]) was 1 to 10 µM in each case.

Take `COc1cc(C(=O)Nc2cccc(C)c2)ccc1NC1=C(C)C(=O)CC1` [Example 04-61, 3-methoxy-4-((2-methyl-3-oxocyclopent-1-en-1-yl)amino)-N-(m-tolyl)benzamide]: the IC50 (at BRD4_2; in assay [1]) was 1 to 10 µM each time.

Consider `COc1cc(C(=O)Nc2ccc(C)cc2)ccc1NC1=C(C)C(=O)CC1` [Example 04-62, 3-methoxy-4-((2-methyl-3-oxocyclopent-1-en-1-yl)amino)-N-(p-tolyl)benzamide], for which the IC50 (on BRD4_2; in assay [1]) was 1 to 10 µM throughout.

Consider `CNC(=O)c1ccc(NC2=C(C)C(=O)CC2)cc1OC` [Example 04-65], for which the IC50 (at BRD4_2; in assay [1]) was 1 to 10 µM throughout.

As for `COc1cc(NC2=C(C)C(=O)CC2)ccc1C(=O)NC1CCCCC1` [Example 04-66, N-cyclohexyl-2-methoxy-4-((2-methyl-3-oxocyclopent-1-en-1-yl)amino)-benzamide], the IC50 (at BRD4_2; in assay [1]) was 1 to 10 µM throughout.

In the case of `COc1cc(NC2=C(C)C(=O)CC2)ccc1C(=O)Nc1cccc2ccccc12` [Example 04-67, 2-methoxy-4-((2-methyl-3-oxocyclopent-1-en-1-yl)amino)-N-(naphthalen-1-yl)benzamide], the IC50 is more than 10 µM at BRD4_2 and less than 1 µM in assay [1].

Regarding `COc1cc(NC2=C(C)C(=O)CC2)ccc1C(=O)Nc1ccccc1` [Example 04-68, 2-methoxy-4-((2-methyl-3-oxocyclopent-1-en-1-yl)amino)-N-phenylbenzamide], the IC50 (at BRD4_2; in assay [1]) was 1 to 10 µM in each case.

Take `COc1ccccc1NC(=O)c1ccc(NC2=C(C)C(=O)CC2)cc1OC` [Example 04-69, 2-methoxy-N-(2-methoxyphenyl)-4-((2-methyl-3-oxocyclopent-1-en-1-yl)amino)-benzamide]: the IC50 on BRD4_2 is more than 10 µM; in assay [1], less than 1 µM.

Turning to `COc1cccc(NC(=O)c2ccc(NC3=C(C)C(=O)CC3)cc2OC)c1` [Example 04-70, 2-methoxy-N-(3-methoxyphenyl)-4-((2-methyl-3-oxocyclopent-1-en-1-yl)amino)-benzamide], the IC50 (at BRD4_2; in assay [1]) was 1 to 10 µM throughout.

On to `COc1ccc(NC(=O)c2ccc(NC3=C(C)C(=O)CC3)cc2OC)cc1` [Example 04-71, 2-methoxy-N-(4-methoxyphenyl)-4-((2-methyl-3-oxocyclopent-1-en-1-yl)amino)-benzamide], for which the IC50 (at BRD4_2; in assay [1]) was 1 to 10 µM throughout.

Regarding `COc1cc(NC2=C(C)C(=O)CC2)ccc1C(=O)Nc1ccccc1C` [Example 04-72, 2-methoxy-4-((2-methyl-3-oxocyclopent-1-en-1-yl)amino)-N-(o-tolyl)benzamide], the IC50 is 1 to 10 µM on BRD4_2 and less than 1 µM in assay [1].

As to `COc1cc(NC2=C(C)C(=O)CC2)ccc1C(=O)Nc1cccc(C)c1` [Example 04-73, 2-methoxy-4-((2-methyl-3-oxocyclopent-1-en-1-yl)amino)-N-(m-tolyl)benzamide], the IC50 (at BRD4_2; in assay [1]) was 1 to 10 µM in each case.

On to `COc1cc(NC2=C(C)C(=O)CC2)ccc1C(=O)Nc1ccc(C)cc1` [Example 04-74, 2-methoxy-4-((2-methyl-3-oxocyclopent-1-en-1-yl)amino)-N-(p-tolyl)benzamide], for which the half-inhibitory concentration (IC50) (at BRD4_2; in assay [1]) was 1 to 10 µM each time.

On to `CNC(=O)c1ccc(NC2=C(C)C(=O)CC2)c(C)c1` [Example 04-77, N,3-dimethyl-4-((2-methyl-3-oxocyclopent-1-en-1-yl)amino)benzamide], for which the IC50 on BRD4_2 was more than 10 µM; in assay [1], 1 to 10 µM.

As for `CC1=C(Nc2ccc(C(=O)NC3CCCCC3)cc2C)CCC1=O` [Example 04-78, N-cyclohexyl-3-methyl-4-((2-methyl-3-oxocyclopent-1-en-1-yl)amino)benzamide], the IC50 (on BRD4_2; in assay [1]) was 1 to 10 µM each time.

In the case of `CC1=C(Nc2ccc(C(=O)Nc3cccc4ccccc34)cc2C)CCC1=O` [Example 04-79, 3-methyl-4-((2-methyl-3-oxocyclopent-1-en-1-yl)amino)-N-(naphthalen-1-yl)benzamide], the IC50 (at BRD4_2; in assay [1]) was 1 to 10 µM in each case.

As to `CC1=C(Nc2ccc(C(=O)Nc3ccccc3)cc2C)CCC1=O` [Example 04-80, 3-methyl-4-((2-methyl-3-oxocyclopent-1-en-1-yl)amino)-N-phenylbenzamide], the IC50 (on BRD4_2; in assay [1]) was 1 to 10 µM throughout.

Turning to `COc1ccccc1NC(=O)c1ccc(NC2=C(C)C(=O)CC2)c(C)c1` [Example 04-81, N-(2-methoxyphenyl)-3-methyl-4-((2-methyl-3-oxocyclopent-1-en-1-yl)amino)-benzamide], the IC50 (on BRD4_2; in assay [1]) was 1 to 10 µM each time.

Consider `COc1cccc(NC(=O)c2ccc(NC3=C(C)C(=O)CC3)c(C)c2)c1` [Example 04-82, N-(3-methoxyphenyl)-3-methyl-4-((2-methyl-3-oxocyclopent-1-en-1-yl)amino)-benzamide], for which the concentration for half-maximal inhibition (IC50) (on BRD4_2; in assay [1]) was 1 to 10 µM in each case.

As for `COc1ccc(NC(=O)c2ccc(NC3=C(C)C(=O)CC3)c(C)c2)cc1` [Example 04-83, N-(4-methoxyphenyl)-3-methyl-4-((2-methyl-3-oxocyclopent-1-en-1-yl)amino)-benzamide], the 50% inhibitory concentration (IC50) (at BRD4_2; in assay [1]) was 1 to 10 µM in each case.

As to `CC1=C(Nc2ccc(C(=O)Nc3ccccc3C)cc2C)CCC1=O` [Example 04-84, 3-methyl-4-((2-methyl-3-oxocyclopent-1-en-1-yl)amino)-N-(o-tolyl)benzamide], the IC50 (on BRD4_2; in assay [1]) was 1 to 10 µM throughout.

For the compound `CC1=C(Nc2ccc(C(=O)Nc3cccc(C)c3)cc2C)CCC1=O` [Example 04-85, 3-methyl-4-((2-methyl-3-oxocyclopent-1-en-1-yl)amino)-N-(m-tolyl)benzamide], the IC50 (on BRD4_2; in assay [1]) was 1 to 10 µM throughout.

Regarding `CC1=C(Nc2ccc(C(=O)Nc3ccc(C)cc3)cc2C)CCC1=O` [Example 04-86, 3-methyl-4-((2-methyl-3-oxocyclopent-1-en-1-yl)amino)-N-(p-tolyl)benzamide], the IC50 (at BRD4_2; in assay [1]) was 1 to 10 µM in each case.

In the case of `COC(=O)c1cccc(NC(=O)c2ccc(Cl)c(NC3=C(C)C(=O)CCC3)c2)c1C` [Example 04-92, methyl 3-(4-chloro-3-((2-methyl-3-oxocyclohex-1-en-1-yl)amino)benzamido)-2-methylbenzoate], the IC50 on BRD4_2 is more than 10 µM; in assay [1], 1 to 10 µM.

For `COC(=O)c1ccc(C)c(NC(=O)c2ccc(Cl)c(NC3=C(C)C(=O)CCC3)c2)c1` [Example 04-93, methyl 3-(4-chloro-3-((2-methyl-3-oxocyclohex-1-en-1-yl)amino)benzamido)-4-methylbenzoate], the IC50 (at BRD4_2; in assay [1]) was 1 to 10 µM in each case.

In the case of `CC1=C(Nc2cc(C(=O)Nc3cccc(C(=O)O)c3C)ccc2Cl)CCCC1=O` [Example 04-95, 3-(4-chloro-3-((2-methyl-3-oxocyclohex-1-en-1-yl)amino)benzamido)-2-methylbenzoic acid], the IC50 (on BRD4_2; in assay [1]) was more than 10 µM in each case.

For `CC1=C(Nc2cc(C(=O)Nc3cc(C(=O)O)ccc3C)ccc2Cl)CCCC1=O` [Example 04-96, 3-(4-Chloro-3-((2-methyl-3-oxocyclohex-1-en-1-yl)amino)benzamido)-4-methylbenzoic acid], the IC50 was more than 10 µM at BRD4_2 and 1 to 10 µM in assay [1].
